Experimental data: patent publication US9180214B1, “Gonadotropin-releasing hormone receptor-targeting peptides and their use to treat and diagnose cancer” (STC.UNM, priority 2011, dated 2015)
Positions of bridges follow the written chain, without caps; N, C: chain ends. Non-standard residues stand in square brackets, D forms with d. Residues, ends and D or L forms follow the SMILES beside them. Chains are numbered I, II in the order given. *: point of attachment. DOTA = O=C(O)CN1CCN(CC(=O)O)CCN(CC(=O)*)CCN(CC(=O)O)CC1; pGlu = O=C1CC[C@@H](C(=O)O)N1; Ahx = NCCCCCC(=O)O

Key:
[1] = biological target: T1, human GnRH receptor membrane preparations (Homo sapiens, UniProt P30968); assay: In vitro competitive GnRH receptor binding assay with ^125I-[D-Trp^6]-LH-RH
T1 construct: purchased Millipore, Inc (Billerica, Mass.)
T1 sequence (P30968 1-328): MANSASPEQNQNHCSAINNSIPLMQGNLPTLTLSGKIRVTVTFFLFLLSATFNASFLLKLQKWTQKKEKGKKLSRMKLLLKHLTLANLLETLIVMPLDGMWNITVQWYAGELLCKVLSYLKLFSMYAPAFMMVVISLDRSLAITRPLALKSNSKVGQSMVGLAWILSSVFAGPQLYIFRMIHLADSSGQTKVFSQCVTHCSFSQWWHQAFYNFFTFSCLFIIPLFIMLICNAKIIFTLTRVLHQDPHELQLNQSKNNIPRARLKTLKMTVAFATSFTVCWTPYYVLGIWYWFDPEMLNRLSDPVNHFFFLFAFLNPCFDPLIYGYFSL
Experimental: The GnRH receptor binding affinities (IC50 values) of DOTA-Ahx-(D-Lys^6-GnRH1), DOTA-Ahx-(D-Lys^6-GnRH2) and DOTA-Ahx-(L-Lys^6-GnRH3) were determined by in vitro competitive binding assay according to the published procedure^32 with modifications. Briefly, 5 μL of Millipore ChemiScreen™ human GnRH membrane preparations were incubated at 25° C. for 3 h with approximately 30,000 counts per minute (cpm) of ^125I-[D-Trp^6]-LH-RH in the presence of 10^−11 to 10^−5 M of each peptide in 95 μL of binding medium {50 mM N-(2-hydroxyethyl)-piperazine-N′-(2-ethanesulfonic acid), 5 mM MgCl2, 1 mM CaCl2, pH 7.4, 0.2% bovine serum albumin (BSA)}. After the incubation, 800 μL of ice-cold washing buffer (50 mM N-(2-hydroxyethyl)-piperazine-N′-(2-ethanesulfonic acid), 500 mM NaCl, pH 7.4, 0.1% BSA) was added to each mixture. Each resulting mixture was filtered through a GF/C filter (Whatman, Clifton, N.J.) pre-soaked in 1% polyethylenimine. Each filter was rinsed with 1 mL of ice-cold washing buffer for three times. The activities on the filters were measured in a Wallac 1480 automated gamma counter (PerkinElmer, Waltham, Mass.). The IC50 value of each peptide was calculated using Prism software (GraphPad Software, La Jolla, Calif.).

[2] = system: DU145 human prostate cancer-xenografted nude mice; assay: Biodistribution in DU145 human prostate cancer-xenografted nude mice; assay type: in vivo, mouse; settings: DU145 xenograft
Experimental: All the animal studies were conducted in compliance with Institutional Animal Care and Use Committee approval. The pharmacokinetics of ^111In-DOTA-Ahx-(D-Lys^6-GnRH1) was determined in DU145 human prostate cancer-xenografted male athymic nude mice (Harlan, Indianapolis, Ind.). The nude mice were subcutaneously inoculated with 1×10^7 DU145 cells on the right flank of each mouse to generate DU145 xenografted tumors. The tumor weights reached approximately 0.3 g at 18 days post cell inoculation. Each tumor-bearing mouse was injected with 0.037 MBq of 111In-DOTA-Ahx-(D-Lys6-GnRH1) via the tail vein. Groups of 5 mice were sacrificed at 0.5, 2, 4 and 24 h post-injection, and tumors and organs of interest were harvested, weighed and counted. Blood values were taken as 6.5% of the whole-body weight. To determine the tumor imaging property of ^111In-DOTA-Ahx-(D-Lys^6-GnRH1), approximately 33.3 MBq of ^111In-DOTA-Ahx-(D-Lys^6-GnRH1) was injected into a DU145 human prostate cancer-xenografted nude mouse (18 days post the cell inoculation) via the tail vein. The mouse was sacrificed for small animal SPECT/CT (Nano-SPECT/CT®, Bioscan) imaging at 0.5 h post-injection. The CT imaging was immediately followed by the whole-body SPECT imaging. The SPECT scans of 24 projections were acquired. Reconstructed SPECT and CT data were visualized and co-registered using InVivoScope (Bioscan, Washington D.C.).

[3] = system: MDA-MB-231 human breast cancer-xenografted nude mice; assay: Biodistribution in MDA-MB-231 human breast cancer-xenografted nude mice; assay type: in vivo, mouse; settings: MDA-MB-231 xenograft
Experimental: All the animal studies were conducted in compliance with Institutional Animal Care and Use Committee approval. The pharmacokinetics of ^111In-DOTA-Ahx-(D-Lys^6-GnRH1) was determined in MDA-MB-231 human breast cancer-xenografted female athymic nude mice (Harlan, Indianapolis, Ind.). The nude mice were subcutaneously inoculated with 1×10^7 MDA-MB-231 cells on the right flank of each mouse to generate MDA-MB-231 xenografted tumors. The tumor weights reached approximately 0.3 g at 18 days post cell inoculation. Each tumor-bearing mouse was injected with 0.037 MBq of ^111In-DOTA-Ahx-(D-Lys^6-GnRH1) via the tail vein. Groups of 5 mice were sacrificed at 0.5, 2, 4 and 24 h post-injection, and tumors and organs of interest were harvested, weighed and counted. Blood values were taken as 6.5% of the whole-body weight.

[4] = Urinary metabolites by RP-HPLC in DU145 xenografted nude mouse; assay type: in vivo; settings: 2 h post-injection
Experimental: One hundred microliters of HPLC purified ^111In-DOTA-Ahx-(D-Lys^6-GnRH1) (2.4 MBq) was injected into a DU145 human prostate cancer-xenografted nude mouse through the tail vein. At 2 h post-injection, the mouse was sacrificed and the urine was collected for metabolites analysis. The urine was centrifuged at 16,000 g for 5 min prior to the HPLC analysis. The radioactive metabolites in the urine were analyzed by injecting aliquots of the urine into HPLC. A 20-minute gradient of 15-25% acetonitrile/20 mM HCl was used for the urine analysis.

[5] = In vitro mouse serum stability by RP-HPLC; assay type: in vitro ADME; settings: 37° C., 2 h
Experimental: In vitro serum stability of ^111In-DOTA-Ahx-(D-Lys^6-GnRH1) was determined by incubation in mouse serum at 37° C. for 2 h and monitored for degradation by RP-HPLC. Briefly, 100 μL of HPLC-purified ^111In-DOTA-Ahx-(D-Lys^6-GnRH1) solution (˜3.7 MBq) was added into 100 μL of mouse serum (Sigma-Aldrich Corp, St. Louis, Mo.) and incubated at 37° C. for 2 h. After the incubation, 200 μL of a mixture of ethanol and acetonitrile (V:V=1:1) was added to precipitate the serum. The resulting mixture was centrifuged at 10,000 g for 5 min to collect the supernatant. The supernatant was purged with N2 gas for 30 min to remove the ethanol and acetonitrile. The resulting sample was mixed with 500 μL of water and injected into RP-HPLC for analysis using the gradient described above.

[6] = biological target: T2, human GnRH receptor (human, UniProt P30968 1-328); assay: ratio of IC50 values from the competitive binding assay
T2 construct: whole, on cells; also called gonadotropin-releasing hormone (GnRH) receptor; ChemiScreen Human GnRH receptor membrane preparations
T2 sequence (looked up): T1 sequence (P30968 1-328)

[7] = biological target: T2, human GnRH receptor; assay: competitive binding against 125I-[D-Trp6]-LH-RH on human GnRH receptor membrane preparations, filter assay
Experimental: The GnRH receptor binding affinities (IC$50$ values) of DOTA-Ahx-(D-Lys^6-GnRH1), DOTA-Ahx-(D-Lys^6-GnRH2) and DOTA-Ahx-(L-Lys^6-GnRH3) were determined by in vitro competitive binding assay according to the published procedure[32] with modifications. […] After the incubation, 800 μL of ice-cold washing buffer (50 mM N-(2-hydroxyethyl)-piperazine-N'-(2-ethanesulfonic acid), 500 mM NaCl, pH 7.4, 0.1% BSA) was added to each mixture. Each resulting mixture was filtered through a GF/C filter (Whatman, Clifton, N.J.) pre-soaked in 1% polyethylenimine. Each filter was rinsed with 1 mL of ice-cold washing buffer for three times. The activities on the filters were measured in a Wallac 1480 automated gamma counter (PerkinElmer, Waltham, Mass.). The IC$50$ value of each peptide was calculated using Prism software (GraphPad Software, La Jolla, Calif.).

CC(C)C[C@H](NC(=O)[C@@H](CCCCNC(=O)CCCCCNC(=O)CN1CCN(CC(=O)O)CCN(CC(=O)O)CCN(CC(=O)O)CC1)NC(=O)[C@H](Cc1ccc(O)cc1)NC(=O)[C@H](CO)NC(=O)[C@H](Cc1c[nH]c2ccccc12)NC(=O)[C@H](Cc1c[nH]cn1)NC(=O)[C@@H]1CCC(=O)N1)C(=O)N[C@@H](CCCNC(=N)N)C(=O)N1CCC[C@H]1C(=O)NCC(N)=O [DOTA-Ahx-(D-Lys^6-GnRH1)]
GnRH receptor binding affinity (in words) [1]: low nanomolar

CC(C)C[C@H](NC(=O)[C@@H](CCCCNC(=O)[C@H](Cc1ccc(O)cc1)NC(=O)[C@H](CO)NC(=O)[C@H](Cc1c[nH]c2ccccc12)NC(=O)[C@H](Cc1c[nH]cn1)NC(=O)[C@@H]1CCC(=O)N1)NC(=O)CCCCCNC(=O)CN1CCN(CC(=O)O)CCN(CC(=O)O)CCN(CC(=O)O)CC1)C(=O)N[C@@H](CCCNC(=N)N)C(=O)N1CCC[C@H]1C(=O)NCC(N)=O [DOTA-Ahx-(D-Lys^6-GnRH2)] (I: {DOTA-Ahx}-[dK]LRPG-NH2 / II: [pGlu]HWSY; amide I:1-II:C)
decrease of GnRH receptor binding affinity versus DOTA-Ahx-(D-Lys^6-GnRH1) [1]: 293 fold

CC(C)C[C@H](NC(=O)[C@H](CCCCNC(=O)CCCCCNC(=O)CN1CCN(CC(=O)O)CCN(CC(=O)O)CCN(CC(=O)O)CC1)NC(=O)[C@H](Cc1ccc(O)cc1)NC(=O)[C@H](CO)NC(=O)[C@H](Cc1c[nH]c2ccccc12)NC(=O)[C@H](Cc1c[nH]cn1)NC(=O)[C@@H]1CCC(=O)N1)C(=O)N[C@@H](CCCNC(=N)N)C(=O)N1CCC[C@H]1C(=O)NCC(N)=O [DOTA-Ahx-(L-Lys^6-GnRH3)]
decrease of GnRH receptor binding affinity versus DOTA-Ahx-(D-Lys^6-GnRH1) [1]: 119 fold

CC(C)C[C@H](NC(=O)[C@@H](CCCCNC(=O)CCCCCNC(=O)CN1CCN(CC(=O)O)CCN(CC(=O)O)CCN(CC(=O)O)CC1)NC(=O)[C@H](Cc1ccc(O)cc1)NC(=O)[C@H](CO)NC(=O)[C@H](Cc1c[nH]c2ccccc12)NC(=O)[C@H](Cc1cnc[nH]1)NC(=O)[C@@H]1CCC(=O)N1)C(=O)N[C@@H](CCCNC(=N)N)C(=O)N1CCC[C@H]1C(=O)NCC(N)=O [^111In-DOTA-Ahx-(D-Lys^6-GnRH1), metal not drawn]
Kidneys, percent injected dose/gram ([2]; 0.5 h post-injection): 10.93±1.53 % ID/g
Tumor, percent injected dose/gram ([2]; 0.5 h post-injection): 1.27±0.40 % ID/g
Kidneys, percent injected dose/gram ([2]; 2 h post-injection): 6.41±0.34 % ID/g
Tumor, percent injected dose/gram ([2]; 2 h post-injection): 0.55±0.23 % ID/g
Kidneys, percent injected dose/gram ([2]; 4 h post-injection): 7.29±0.90 % ID/g
Tumor, percent injected dose/gram ([2]; 4 h post-injection): 0.38±0.16 % ID/g
Kidneys, percent injected dose/gram ([2]; 24 h post-injection): 2.72±0.64 % ID/g
Tumor, percent injected dose/gram ([2]; 24 h post-injection): 0.31±0.09 % ID/g
Kidneys, percent injected dose/gram ([3]; 0.5 h post-injection): 15.39±4.59 % ID/g
Tumor, percent injected dose/gram ([3]; 0.5 h post-injection): 1.76±0.58 % ID/g
Blood, percent injected dose/gram ([3]; 2 h post-injection): 0.20±0.03 % ID/g
Kidneys, percent injected dose/gram ([3]; 2 h post-injection): 8.88±1.26 % ID/g
Liver, percent injected dose/gram ([3]; 2 h post-injection): 0.77±0.06 % ID/g
Tumor, percent injected dose/gram ([3]; 2 h post-injection): 0.29±0.10 % ID/g
Kidneys, percent injected dose/gram ([3]; 4 h post-injection): 9.28±1.18 % ID/g
Liver, percent injected dose/gram ([3]; 4 h post-injection): 0.97±0.13 % ID/g
Tumor, percent injected dose/gram ([3]; 4 h post-injection): 0.15±0.05 % ID/g
Kidneys, percent injected dose/gram ([3]; 24 h post-injection): 4.43±1.67 % ID/g
Liver, percent injected dose/gram ([3]; 24 h post-injection): 0.59±0.16 % ID/g
Tumor, percent injected dose/gram ([3]; 24 h post-injection): 0.18±0.07 % ID/g
metabolized into two compounds with higher polarity (urine) [4]: 90.2%
remained intact in urine [4]: 9.8%
stability in mouse serum [5]: stable

DOTA-Ahx-(D-Lys^6-GnRH2) (peptide)
fold decrease of GnRH receptor binding affinity against DOTA-Ahx-(D-Lys^6-GnRH1) [6]: 293 fold

B1: DOTA-Ahx-(L-Lys^6-GnRH3) (peptide)
peptide: XHWSYKLRPG
modifications: pGlu at 1; L-Lys at 6 carrying DOTA-Ahx on its epsilon amino group; C-terminal amide
fold decrease of GnRH receptor binding affinity against DOTA-Ahx-(D-Lys^6-GnRH1) [6]: 119 fold

B2: DOTA-Ahx-(D-Lys^6-GnRH1) (peptide)
peptide: XHWSYKLRPG
modifications: pGlu at 1; D-Lys at 6 carrying DOTA-Ahx (aminohexanoic acid linker) on its epsilon amino group; C-terminal amide (Gly10-NH2)
IC50 [7]: 36.1 nM
